Reference: patent publication US4103011A, “Novel penicillin compounds and process for preparation thereof” (priority 1976, dated 1978)
Structures can show the parent of a compound that is named as a salt. Where two headings read alike, the source gives them in different places.

What was measured:
[1] = test system: Staphylococcus aureus No. 50774; experiment: In vivo efficacy against systemic infection; design: species or system male mice (ddY); conditions: NO.50774, in Mus musculus, 336 h, sc, twice, about 5 minutes and 6 hours after infection, read-out: ED50 (median effective dose)
Outline: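 Male ddY mice (~20 g) infected intravenously with 50 to 100 LD50 (about 5 × 10^8 cells/mouse) of S. aureus No. 50774 in saline. Compounds in water or aqueous sodium carbonate (pH 8-9) dosed twice, about 5 minutes and 6 hours post-infection; ED50 (mg/kg) by Behrens-Kaerber method.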

[2] = test system: mice
[3] = test system: bacteria (systemic infection); experiment: In vivo efficacy against systemic infection, overall conclusions; design: species or system male mice (ddY); conditions: Table II
Outline: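 Mice given injections of compounds at various concentrations, dissolved in deionized water or in aqueous sodium carbonate (pH 8-9) depending on compound. Median effective dose (ED50) determined against systemic infection.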

[4] = test system: Proteus morganii Kono; experiment: In vitro antibacterial activity (MIC); type: cell-based; conditions: Morganella morganii, read-out: minimum inhibitory concentration (MIC)
Excerpt: (§1) In vitro antibacterial activity against 20 strains of bacteria
(§2) The numerals in the table show minimum inhibitory concentrations (MIC)

[5] = test system: Escherichia coli P-5101; experiment: In vitro antibacterial activity (MIC); type: cell-based; conditions: P5101; Escherichia coli P-5101; read-out: minimum inhibitory concentration (MIC)
Excerpt: as §1, §2

[6] = test system: Staphylococcus aureus 209P JC-1; experiment: In vitro antibacterial activity (MIC); type: cell-based; conditions: Staphylococcus aureus 209P JC-1; read-out: minimum inhibitory concentration (MIC)
Excerpt: as §1, §2

[7] = test system: Proteus mirabilis P-2381; experiment: In vitro antibacterial activity (MIC); type: cell-based; conditions: Proteus mirabilis, P2381, read-out: minimum inhibitory concentration (MIC)
Excerpt: as §1, §2

[8] = test system: Enterobacter cloacae P-2540; experiment: In vitro antibacterial activity (MIC); type: cell-based; conditions: Enterobacter cloacae, P2540, read-out: minimum inhibitory concentration (MIC)
Excerpt: as §1, §2

[9] = test system: Corynebacterium pyogenes C-21; experiment: In vitro antibacterial activity (MIC); type: cell-based; conditions: Rhodococcus (subgen. Prescottella) equi, C21, read-out: minimum inhibitory concentration (MIC)
Excerpt: as §1, §2

[10] = test system: Streptococcus pyogenes 65A; experiment: In vitro antibacterial activity (MIC); type: cell-based; conditions: Streptococcus pyogenes 65A; read-out: minimum inhibitory concentration (MIC)
Excerpt: as §1, §2

[11] = test system: Shigella flexneri 2a; experiment: In vitro antibacterial activity (MIC); type: cell-based; conditions: read-out: minimum inhibitory concentration (MIC)
Excerpt: as §1, §2

[12] = test system: Streptococcus faecalis P-2473; experiment: In vitro antibacterial activity (MIC); type: cell-based; conditions: Enterococcus faecalis, P2473, read-out: minimum inhibitory concentration (MIC)
Excerpt: as §1, §2

[13] = test system: Klebsiella pneumoniae No. 13; experiment: In vitro antibacterial activity (MIC); type: cell-based; conditions: Klebsiella pneumoniae, NO.13, read-out: minimum inhibitory concentration (MIC)
Excerpt: as §1, §2

[14] = test system: Serratia mercescens IFO 3736; experiment: In vitro antibacterial activity (MIC); type: cell-based; conditions: IFO3736; Serratia mercescens IFO 3736; read-out: minimum inhibitory concentration (MIC)
Excerpt: as §1, §2

[15] = test system: Escherichia coli P-140a; experiment: In vitro antibacterial activity (MIC); type: cell-based
Excerpt: as §1, §2

[16] = test system: Staphylococcus aureus No. 50774; experiment: In vitro antibacterial activity (MIC); type: cell-based; conditions: Staphylococcus aureus No. 50774; read-out: minimum inhibitory concentration (MIC)
Excerpt: as §1, §2

[17] = test system: Escherichia coli NIHJ JC-2; experiment: In vitro antibacterial activity (MIC); type: cell-based; conditions: Escherichia coli, NIHJJC2, read-out: minimum inhibitory concentration (MIC)
Excerpt: as §1, §2

[18] = test system: Salmonella enteritidis No. 1891; experiment: In vitro antibacterial activity (MIC); type: cell-based; conditions: Salmonella enterica; Salmonella enteritidis No. 1891; read-out: minimum inhibitory concentration (MIC)
Excerpt: as §1, §2

[19] = test system: Shigella flexneri 4a P-330; experiment: In vitro antibacterial activity (MIC); type: cell-based; conditions: 4AP330, read-out: minimum inhibitory concentration (MIC)
Excerpt: as §1, §2

[20] = test system: Pseudomonas aeruginosa Tsuchijima; experiment: In vitro antibacterial activity (MIC); type: cell-based; conditions: Pseudomonas aeruginosa Tsuchijima; read-out: minimum inhibitory concentration (MIC)
Excerpt: as §1, §2

[21] = test system: Proteus rettgeri P-2503; experiment: In vitro antibacterial activity (MIC); type: cell-based; conditions: Providencia rettgeri, P2503; Proteus rettgeri P-2503; read-out: minimum inhibitory concentration (MIC)
Excerpt: as §1, §2

[22] = test system: Salmonella typhimurium S-9; experiment: In vitro antibacterial activity (MIC); type: cell-based; conditions: Salmonella enterica; Salmonella typhimurium S-9; read-out: minimum inhibitory concentration (MIC)
Excerpt: as §1, §2

[23] = test system: Pseudomonas aeruginosa No.12; experiment: In vitro antibacterial activity (MIC); type: cell-based; conditions: Pseudomonas aeruginosa, NO.12, read-out: minimum inhibitory concentration (MIC)
Excerpt: as §1, §2

[24] = Urinary excretion in mice; type: in vivo, male mice (ddY); conditions: for a: amount in urine: 4 mice, total body weight 101.8 g
Method: The contents of the vials (No. A) obtained in Example 17 were dissolved in deionized water to form solutions of penicillin compound 1 in a concentration of 25 mg/ml. The solutions were administered in a dose of 25 mg/kg (im) to four male mice (ddY) having an average body weight of 25 g. After given periods of time, the urine was collected from the four mice, and the concentration of the penicillin compound 1 in the urine was determined.
Urine was collected by using a metabolism cage for 3, 6, and 24 hours after administration. The pooled urine was diluted with a 0.067M phosphate buffer (pH 7.0) before assay to 500 times for the 0-3 hour urine, 100 times for the 3-6 hour urine and 10 times for the 6-24 hour urine.
The levels of compound 1 were determined by the thin-layer cup-plate method using Escherichia coli Kp as an indicator microorganism and a standard calibration line was prepared in a 0.067M phosphate buffer (pH 7.0).

## CC1(C)S[C@@H]2[C@H](NC(=O)[C@H](NC(=O)c3c[nH]c4nc(N5CCN(C=O)CC5)ncc4c3=O)c3ccc(O)cc3)C(=O)N2[C@H]1C(=O)O [Compound 1, D-α-[5,8-Dihydro-2-(4-formyl-1-piperazinyl)-5-oxopyrido[2,3-d]pyrimidine-6-carboxamido]-p-hydroxybenzyl-penicillin sodium salt]
[1]
  ED50: 2.1 mg/kg
[2]; Pseudomonas aeruginosa
  chemotherapeutic index relative to compounds B, D, E, F, G and J (times as high): 3 to 100 times
[2]; mice
  LD50 relative to compounds A to G (times as high): 2 to 10 times
[3]
  antibacterial activity in vivo (in words): excellent antibacterial activity in vivo
[4]
  MIC: 6.25 µg/mL
[5]
  MIC: 1.56 µg/mL
[6]
  MIC: 0.78 µg/mL
[7]
  MIC: 3.13 µg/mL
[8]
  MIC: 6.25 µg/mL
[9]
  MIC: 3.13 µg/mL
[10]
  MIC: 0.006 µg/mL
[11]
  MIC: 3.13 µg/mL
[12]
  MIC: 3.13 µg/mL
[13]
  MIC: 12.5 µg/mL
[14]
  MIC: 6.25 µg/mL
[15]
  minimum inhibitory concentration (MIC): 12.5 µg/mL
[16]
  MIC: 1.56 µg/mL
[17]
  MIC: 3.13 µg/mL
[18]
  MIC: 0.78 µg/mL
[19]
  MIC: 3.13 µg/mL
[20]
  MIC: 0.78 µg/mL
[21]
  MIC: 25 µg/mL
[22]
  MIC: 0.78 µg/mL
[23]
  MIC: 3.13 µg/mL
[24]; 25 mg/kg, im, single dose, 0-3 hour
  a: amount in urine: 0.718 mg
[24]; 25 mg/kg, im, single dose, 3-6 hour
  a: amount in urine: 0.0480 mg
[24]; 25 mg/kg, im, single dose, 6-24 hour
  a: amount in urine: 0.0483 mg
[24]; after parenteral administration
  urinary level (in words): higher than its MIC (μg/ml) values against various bacteria shown in Table I
[24]; mouse, urine, im, 25 mg/kg, im, single dose, 0-3 hour, read-out: cr: cumulative urinary recovery
  dose excreted at 3 h: 28.2%
[24]; mouse, urine, im, 25 mg/kg, im, single dose, 0-3 hour, read-out: r: urinary recovery
  dose excreted at 3 h: 28.2%
[24]; mouse, urine, im, 25 mg/kg, im, single dose, 3-6 hour, read-out: r: urinary recovery
  dose excreted at 6 h: 1.89%
[24]; mouse, urine, im, 25 mg/kg, im, single dose, 6-24 hour, read-out: r: urinary recovery
  dose excreted at 24 h: 1.9%
[24]; mouse, urine, im, 25 mg/kg, im, single dose, column 3-6 hour, read-out: cr: cumulative urinary recovery
  dose excreted at 6 h: 30%
[24]; mouse, urine, im, 25 mg/kg, im, single dose, column 6-24 hour, read-out: cr: cumulative urinary recovery
  dose excreted at 24 h: 31.9%
[24]; mouse, urine, 25 mg/kg, im, single dose, 0-3 hour, read-out: c: urinary concentration
  concentration at 3 h: 187000 ng/mL
[24]; mouse, urine, 25 mg/kg, im, single dose, 3-6 hour, read-out: c: urinary concentration
  concentration at 6 h: 21500 ng/mL
[24]; mouse, urine, 25 mg/kg, im, single dose, 6-24 hour, read-out: c: urinary concentration
  concentration at 24 h: 7250 ng/mL
